pIC50: −log10 of the molar value. Read-outs that look alike come from different tables or passages of the source.
Experiments:
MYB mRNA = assay: RT-qPCR splicing assay, MYB canonical junction (CJ) and alternative junction (AJ) mRNA; type: cell-based, human; details: Homo sapiens; for AC50: increase in MYB alternative junction (AJ) mRNA, read-out: MYB AJ AC50
Method in brief: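 A673 cells (normalized to PPIA) or K562 cells (normalized to GAPDH or GUSB) were treated 24 h at 37 °C with an 11-point 3-fold dilution series, top 10 uM, DMSO ≤0.25%. Cell lysates went to one-step RT-qPCR measuring canonical- and alternative-junction MYB or HTT transcripts.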

Target C [1] = assay: RT-qPCR splicing assay panel, Target C canonical junction (CJ) mRNA; type: cell-based, human; details: Homo sapiens; Table 5 panel; canonical junction qPCR; compound concentration having 50% response in CJ decrease; read-out: Target C IC50 (decrease in CJ mRNA levels)
Method in brief: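 A673 or K562 cells were treated for 24 h at 37 °C with compound in 11-point 3-fold dilution (top 10 uM final, DMSO ≤0.25%). Lysates then went to one-step RT-qPCR measuring canonical-junction mRNA, normalized to GAPDH, GUSB or PPIA.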

Target C [2] = assay: HiBiT protein abundance assay, Target C HiBiT K562 cell line; type: cell-based; details: Homo sapiens; HiBiT lytic detection, modified K562 cells, 24 hours, top dose 10 μM; read-out: Effect on protein abundance, Target C (IC50)
Experimental: • Promega Nano-Glo HiBiT Lytic Detection System (cat #N3030) • Corning 384-well TC-treated microplates (cat #3570) • Synthego Engineered Cells Knock-In Clones
Cells were maintained in IMDM with 10% FBS. Before the assay, cells were diluted with […] growth media (IMDM+[…] media) and were seeded in a 384-well plate at a density of 10,000 cells/well (for each cell line listed in Table 5). Each compound was prepared as a 10-point 3-fold serial dilution in DMSO with the top dose at a final concentration of 10 μM in the well. Unmodified K562 cells were added at the previously specified density with DMSO to serve as an assay baseline and positive control (PC) and DMSO only with the respective modified cell lines was added to the negative control (NC) columns. Final DMSO concentration was kept at or below 0.25%. Treated cell plates were placed in an incubator at 37° C. with […] for 24 hours. After 24 hours, 25 μL of Complete HiBit Lytic reagent was added to each well at room temperature (e.g. one plate requiring 10 mL Lytic Buffer, 100 μL LgBiT Protein, 200 μL Lytic Substrate), shaken for 5 minutes at 600 RPM, then left to sit for 10 minutes for signal to stabilize before reading on a Spark Cyto plate reader (Tecan) with a 500 ms measurement time.
To determine compound effects on protein abundance of each target in Table 5, the percent response for each respective cell line was calculated at each compound concentration as follows:
For the normalized response at each concentration, a four-parameter logistical regression was fit to the data and the response was interpolated at the […] to determine a concentration for protein abundance at […] the untreated control.

[3] = Table 5 panel, canonical junction qPCR, compound concentration having 50% response in CJ decrease, read-out: MYB IC50 (decrease in CJ mRNA levels)
[4] = decrease in MYB canonical junction (CJ) mRNA, RT-qPCR, read-out: MYB CJ IC50

| Compound | pIC50 (MYB mRNA; [3]) | pIC50 (MYB mRNA; [4]) | AC50 (MYB mRNA; RT-qPCR) | pIC50 (Target C [1]) | pIC50 (Target C [2]) |
| --- | --- | --- | --- | --- | --- |
| Cc1cn2nc(-c3ccn4c(=O)c(C5=CCNCC5)ncc4c3)cc(C)c2n1 [Compound 1182] | 6.00 to 7.00 | 6.00 to 7.00 | 0.1 to 1 µM | 6.00 to 7.00 | 6.00 to 7.00 |
| Cc1cn2cc(-c3cc(F)c4c(=O)n(C5CCNC6(CC6)C5)ncc4c3)cc(Cl)c2n1 (centres unmarked) [Compound 556] | 6.00 to 7.00 | 6.00 to 7.00 | 0.1 to 1 µM | 5.00 to 6.00 | – |
| Cn1ccc2nn(-c3ccc4c(=O)n(C5CCNCC5)ccc4c3)cc2c1=O [Compound 522, 6-{5-methyl-4-oxopyrazolo[4,3-c]pyridin-2-yl}-2-(piperidin-4-yl)isoquinolin-1-one] | < 5.00 | < 5.00 | > 10 µM | < 5.00 | – |
| Cc1cn2nc(-c3ccc4c(=O)n(C5CCNCC5)ccc4c3)cc(C(N)=O)c2n1 [Compound 523, 2-methyl-6-[1-oxo-2-(4-piperidyl)-6-isoquinolyl]imidazo[1,2-b]pyridazine-8-carboxamide] | 5.00 to 6.00 | 5.00 to 6.00 | 1 to 10 µM | < 5.00 | – |
| CNC(=O)Cc1cc(-c2ccc3c(=O)n(C4CCNCC4)ccc3c2)nn2cc(C)nc12 [Compound 534, N-methyl-2-[2-methyl-6-[1-oxo-2-(4-piperidyl)-6-isoquinolyl]imidazo[1,2-b]pyridazin-8-yl]acetamide] | 5.00 to 6.00 | 5.00 to 6.00 | 1 to 10 µM | 5.00 to 6.00 | – |
| Cc1cn2nc(-c3cc4ccn([C@H]5CCNC5)c(=O)c4cc3O)cc(C)c2n1 [Compound 641, 6-(2,8-dimethylimidazo[1,2-b]pyridazin-6-yl)-7-hydroxy-2-[(3S)-pyrrolidin-3-yl]isoquinolin-1-one] | > 7.00 | 6.00 to 7.00 | < 0.1 µM | 5.00 to 6.00 | – |
| Cc1cn2nc(-c3cc(F)c4c(=O)n(C5CCNCC5)ncc4c3)cc(C)c2n1 [Compound 540] | > 7.00 | > 7.00 | < 0.1 µM | > 7.00 | – |
| Cc1cn2nc(-c3ccc4c(=O)n(C5CCNCC5)ccc4c3)cc(CCO)c2n1 [Compound 533, 6-[8-(2-hydroxyethyl)-2-methyl-imidazo[1,2-b]pyridazin-6-yl]-2-(4-piperidyl)isoquinolin-1-one] | 6.00 to 7.00 | 6.00 to 7.00 | 0.1 to 1 µM | 5.00 to 6.00 | – |
| Cc1cn2cc(-c3ccc4c(=O)n(C5CCNCC5)ccc4c3)cc(C#N)c2n1 [Compound 560, 2-methyl-6-[1-oxo-2-(piperidin-4-yl)isoquinolin-6-yl]imidazo[1,2-a]pyridine-8-carbonitrile] | 6.00 to 7.00 | 6.00 to 7.00 | 0.1 to 1 µM | 5.00 to 6.00 | – |
| Cc1cn2nc(-c3ccc4c(=O)n(C5CCNCC5)ccc4c3)cc(CC(=O)O)c2n1 [Compound 531, 2-[2-methyl-6-[1-oxo-2-(4-piperidyl)-6-isoquinolyl]imidazo[1,2-b]pyridazin-8-yl]acetic acid] | 6.00 to 7.00 | 6.00 to 7.00 | 0.1 to 1 µM | 6.00 to 7.00 | – |
| Cn1ccc2c(cnn2-c2ccc3c(=O)n(C4CCNCC4)ccc3c2)c1=O [Compound 521] | 5.00 to 6.00 | 5.00 to 6.00 | 1 to 10 µM | 5.00 to 6.00 | – |
| Cc1cn2nc(-c3cc(F)c4c(=O)n(C5CCN(CCF)CC5)ncc4c3)cc(C)c2n1 [Compound 538] | 6.00 to 7.00 | 6.00 to 7.00 | 0.1 to 1 µM | 6.00 to 7.00 | – |
| Cc1cn2nc(-c3cc4ccn([C@@H]5CCNC5)c(=O)c4cc3O)cc(C)c2n1 [Compound 640, 6-(2,8-dimethylimidazo[1,2-b]pyridazin-6-yl)-7-hydroxy-2-[(3R)-pyrrolidin-3-yl]isoquinolin-1-one] | 6.00 to 7.00 | 6.00 to 7.00 | 0.1 to 1 µM | 5.00 to 6.00 | – |
| Cc1cn2cc(-c3cc(O)c4c(=O)n(C5CCNC6(CC6)C5)ncc4c3)cc(Cl)c2n1 (centres unmarked) [Compound 557] | 6.00 to 7.00 | 6.00 to 7.00 | 0.1 to 1 µM | 5.00 to 6.00 | – |
| Cc1cc(-c2cc(F)c3c(=O)n(C4CCNC5(CC5)C4)ncc3c2)cc2cn(C)nc12 (centres unmarked) [Compound 554] | 6.00 to 7.00 | 6.00 to 7.00 | 0.1 to 1 µM | 6.00 to 7.00 | – |
| Cc1cn2cc(-c3cc4ncn(C5CCNCC5)c(=O)c4cc3F)cc(F)c2n1 [Compound 586, 6-fluoro-7-{8-fluoro-2-methylimidazo[1,2-a]pyridin-6-yl}-3-(piperidin-4-yl)quinazolin-4-one] | 6.00 to 7.00 | 6.00 to 7.00 | 0.1 to 1 µM | 5.00 to 6.00 | – |
| Cn1cc2c(=O)n(-c3ccc4c(=O)n(C5CCNCC5)ccc4c3)ccc2n1 [Compound 530, 6-{2-methyl-4-oxopyrazolo[4,3-c]pyridin-5-yl}-2-(piperidin-4-yl)isoquinolin-1-one] | < 5.00 | < 5.00 | > 10 µM | < 5.00 | – |
| Cc1cn2cc(-c3cc(F)c4c(=O)n([C@H]5CNC[C@H]5C)ccc4c3)cc(F)c2n1 [Compound 652, 8-fluoro-6-(8-fluoro-2-methyl-imidazo[1,2-a]pyridin-6-yl)-2-[(3R,4R)-4-methylpyrrolidin-3-yl]isoquinolin-1-one] | 5.00 to 6.00 | 5.00 to 6.00 | 1 to 10 µM | < 5.00 | – |
| Cc1cn2nc(-c3cc(F)c4c(=O)n([C@H]5CCN(C)C6(CC6)C5)ncc4c3)cc(C)c2n1 [Compound 638] | > 7.00 | 6.00 to 7.00 | < 0.1 µM | > 7.00 | – |
| Cc1cn2nc(-c3ccc4c(=O)n(C5CCNCC5)ccc4c3)cc(-n3ccc(=O)cc3)c2n1 [Compound 551, 6-[2-methyl-8-(4-oxo-1-pyridyl)imidazo[1,2-b]pyridazin-6-yl]-2-(4-piperidyl)isoquinolin-1-one] | 6.00 to 7.00 | 6.00 to 7.00 | 0.1 to 1 µM | 6.00 to 7.00 | – |
| Cc1cn2nc(-c3cc(F)c4c(=O)n(C5CCNCC5)ncc4c3)cc(Oc3ccccc3)c2n1 [Compound 548, 8-fluoro-6-(2-methyl-8-phenoxy-imidazo[1,2-b]pyridazin-6-yl)-2-(4-piperidyl)phthala-zin-1-one] | > 7.00 | > 7.00 | < 0.1 µM | > 7.00 | – |
| Cc1cn2cc(-c3cc(O)c4c(=O)n(C5CCNCC5)cnc4c3)cc(F)c2n1 [Compound 587, 7-{8-fluoro-2-methylimidazo[1,2-a]pyridin-6-yl}-5-hydroxy-3-(piperidin-4-yl)quinazolin-4-one] | > 7.00 | > 7.00 | < 0.1 µM | 6.00 to 7.00 | – |
| Cc1cc(-c2ccc3c(=O)n(C4CCNC5(CC5)C4)ncc3c2)cc2cn(C)nc12 (centres unmarked) [Compound 512] | 5.00 to 6.00 | 5.00 to 6.00 | 1 to 10 µM | 5.00 to 6.00 | – |
| Cc1cn2nc(-c3ccc4c(=O)n(C5CCNCC5)ccc4c3)cc(Oc3cccnc3)c2n1 [Compound 550, 6-[2-methyl-8-(3-pyridyloxy)imidazo[1,2-b]pyridazin-6-yl]-2-(4-piperidyl)isoquinolin-1-one] | > 7.00 | > 7.00 | < 0.1 µM | > 7.00 | – |
| Cc1cn2nc(-c3ccc4c(=O)n(C5CCNCC5)ccc4c3)cc(Oc3ccccc3)c2n1 [Compound 519, 6-(2-methyl-8-phenoxy-imidazo[1,2-b]pyridazin-6-yl)-2-(4-piperidyl)isoquinolin-1-one] | > 7.00 | > 7.00 | < 0.1 µM | > 7.00 | – |
| Cn1cc2cc(-c3ncc4c(=O)n(C5CCNCC5)ccc4n3)c(O)c(F)c2n1 [Compound 1123] | > 7.00 | > 7.00 | < 0.1 µM | 6.00 to 7.00 | – |
| Cc1cn2nc(-c3cc(O)c4c(=O)n(C5CCNCC5)ncc4c3)cc(C)c2n1 [Compound 541] | > 7.00 | > 7.00 | < 0.1 µM | > 7.00 | – |
| COC(=O)Cc1cc(-c2ccc3c(=O)n(C4CCNCC4)ccc3c2)nn2cc(C)nc12 [Compound 527] | 6.00 to 7.00 | 6.00 to 7.00 | 0.1 to 1 µM | 5.00 to 6.00 | – |
